Reference: PMC10449621, “Engineering cellular communication between light-activated synthetic cells and bacteria” (Nature Chemical Biology, 2023)
Values joined by “and” are separate entries in the source; they are usually repeats but may differ in a detail not shown here. Equal entries are not always repeated.

Columns and labels:
[1] = test system: BjaRS107R (B0033|ATG) receiver cells; assay: BjaR receiver cell AHSL dose-response (gfp reporter, plate reader); type: cell-based, E. coli XL10-Gold; settings: for EC50: IV-HSL-activated gfp expression; for Mean normalised fluorescence / Normalised fluorescence / GFP: sheet 3d; for Normalised fluorescence / GFP: Expt1-3; for GFP: raw fluorescence ex 488/em 510 nm
Source text: (§1) These findings are consistent with the predicted translation initiation rates of the respective sequences—translation from the BBa_B0033 RBS provides 1% of protein yield compared to the BBa_B0034 RBS, just as an CTG start codon provides 1% of the protein yield compared to an ATG start codon[30],[31]. This also offers support as to why the ON-state gfp expression level increased in variants with a tighter OFF-state; more cellular resources were available for GFP synthesis when comparatively fewer were allocated to BjaR synthesis. To elucidate the impact of the S107R variant on gene circuit performance, we introduced the S107R variant alone back into the bjaRWT gene, in the context of the BBa_B0033 RBS background.
(§2) In addition to quantifying how these BjaR receiver cells responded to their branched, cognate ligand, we also sought to determine whether the BjaR receiver cells could be activated by structurally dissimilar AHSLs involved in the LuxI/R, EsaI/R, LasI/R and RhlI/R QS systems previously used in synthetic cell communication[5],[7],[8]. To this end, we measured the fluorescence of BjaR receiver cells grown in the presence of their activators, 3OC6-HSL, 3OC12-HSL and C4-HSL, respectively (Supplementary Fig. 13a).
(§3) The BjaR reporter plasmids were retransformed into E. coli XL10-Gold cells for each experiment. A single colony was used to inoculate 5 ml LB + Amp media and incubated at 37 °C, 225 r.p.m. overnight. Overnight cultures were diluted 1/250 or 1/500 in 5 ml M9 minimal media + Amp and incubated at 37 °C, 225 r.p.m. for 3 h and 45 min (until OD600 = ~0.075). Cultures were diluted down to OD600 = 0.05 with M9 minimal media + Amp, and 200 µl was added to wells of a 96-well plate containing 1 µl IV-HSL dissolved in DMSO or 1 µl BjaI CFPS reactions (IV-HSL concentrations obtained from serial dilution from 63.2 µM to 632 pM; final DMSO concentration = 0.5%). Cells were incubated at 37 °C, 800 r.p.m., in a thermomixer with a heated lid for 4 h. Fluorescence and OD600 were measured in a Tecan M1000 infinite plate reader (excitation, 488 nm; emission, 510 nm; bandwidth, 5 nm; gain, 101 and z position, 21,311 µm). The dose–response curves were fitted to the function indicated by Eq. (1), where a = maximal fluorescence output, b = basal fluorescence output, X = concentration of AHSL, GFP = fluorescence at the given condition, EC50 = AHSL at 50% maximal fluorescence output and h = hill coefficient. EC50 and h were derived using the nonlinear regression model based on Eq. (1), in MATLAB. A summary of the dose–response data is available in Supplementary Table 1.1 GFP=b+a−b/1+10^logEC50−X×h

[2] = test system: BjaRWT (B0033|ATG) receiver cells; assay: as above; type: cell-based, E. coli XL10-Gold
Source text: as §1, §2, §3

CC(C)CC(=O)N[C@H]1CCOC1=O [IV-HSL, N-isovaleryl-L-homoserine lactone]
EC50 ([1]; Escherichia coli): 630 ± 100 pM | EC50 [1]: 600 pM | Mean normalised fluorescence ([1]; Log([ASHL]) -6.5): 211248 | Normalised fluorescence ([1]; Log([ASHL]) -6.5): 231337 and 193994 and 208414 | GFP ([1]; Log([ASHL]) -6.5): 43152 and 44129 and 37797 | Mean normalised fluorescence ([1]; Log([ASHL]) -7): 191564 | Normalised fluorescence ([1]; Log([ASHL]) -7): 219307 and 167549 and 187835 | GFP ([1]; Log([ASHL]) -7): 41241 and 42932 and 36852 | Mean normalised fluorescence ([1]; Log([ASHL]) -7.5): 185367 | Normalised fluorescence ([1]; Log([ASHL]) -7.5): 205336 and 163229 and 187535 | GFP ([1]; Log([ASHL]) -7.5): 40980 and 43296 and 37356 | Mean normalised fluorescence ([1]; Log([ASHL]) -8): 184023 | Normalised fluorescence ([1]; Log([ASHL]) -8): 162110 and 183388 and 206570 | GFP ([1]; Log([ASHL]) -8): 43713 and 37962 and 41577 | Mean normalised fluorescence ([1]; Log([ASHL]) -8.5): 162300 | Normalised fluorescence ([1]; Log([ASHL]) -8.5): 147294 and 166971 and 172634 | GFP ([1]; Log([ASHL]) -8.5): 45027 and 40097 and 44703 | Mean normalised fluorescence ([1]; Log([ASHL]) -9): 128394 | Normalised fluorescence ([1]; Log([ASHL]) -9): 124444 and 123486 and 137251 | GFP ([1]; Log([ASHL]) -9): 38352 and 35601 and 39674 | Mean normalised fluorescence ([1]; Log([ASHL]) -9.5): 61565.3 | Normalised fluorescence ([1]; Log([ASHL]) -9.5): 61061.7 and 58710.4 and 64923.7 | GFP ([1]; Log([ASHL]) -9.5): 18880 and 16008 and 17944 | Mean normalised fluorescence ([1]; Log([ASHL]) -10): 14778.4 | Normalised fluorescence ([1]; Log([ASHL]) -10): 13513.8 and 15594 and 15227.4 | GFP ([1]; Log([ASHL]) -10): 4242 and 4261 and 4330 | Mean normalised fluorescence ([1]; Log([ASHL]) -10.5): 3859.05 | Normalised fluorescence ([1]; Log([ASHL]) -10.5): 3719.9 and 3832.44 and 4024.82 | GFP ([1]; Log([ASHL]) -10.5): 1247 and 1149 and 1212 | Mean normalised fluorescence ([1]; Log([ASHL]) -11): 2518.58 | Normalised fluorescence ([1]; Log([ASHL]) -11): 2198.08 and 2463.87 and 2893.8 | GFP ([1]; Log([ASHL]) -11): 781 and 756 and 889 | Mean normalised fluorescence ([1]; Log([ASHL]) -11.5): 1640.38 | Normalised fluorescence ([1]; Log([ASHL]) -11.5): 1511.18 and 1789.62 and 1620.34 | GFP ([1]; Log([ASHL]) -11.5): 546 and 584 and 517 | sensitivity to IV-HSL relative to BjaRWT (B0033|ATG) ([1]; more sensitive than BjaRWT (B0033|ATG)): > 6 × | fold activation of gene expression (activation range) ([1]; with vs without IV-HSL): 135 fold | EC50 ([2]; Escherichia coli, IV-HSL-activated gfp expression): 3930 ± 380 pM | hill coefficient ([2]; IV-HSL dose-response curve): 1.38 | GFP ([2]; Log([ASHL]) -6.5): 47248 and 37500 | Mean normalised fluorescence ([2]; Log([ASHL]) -6.5): 200159 | Normalised fluorescence ([2]; Log([ASHL]) -6.5): 212521 and 200332 and 187623 | Mean normalised fluorescence ([2]; Log([ASHL]) -6.5, sheet 3e): 184419 | Mean normalised fluorescence ([2]; Log([ASHL]) -6.5, sheet 3d): 198983 | Normalised fluorescence ([2]; Log([ASHL]) -6.5, sheet 3d, Expt1-3): 211719 and 182929 | GFP ([2]; Log([ASHL]) -7): 45353 and 37555 | Mean normalised fluorescence ([2]; Log([ASHL]) -7): 189629 | Normalised fluorescence ([2]; Log([ASHL]) -7): 198623 and 195600 and 174664 | Mean normalised fluorescence ([2]; Log([ASHL]) -7, sheet 3e): 176709 | Mean normalised fluorescence ([2]; Log([ASHL]) -7, sheet 3d): 188606 | Normalised fluorescence ([2]; Log([ASHL]) -7, sheet 3d, Expt1-3): 197885 and 170457 | GFP ([2]; Log([ASHL]) -7.5): 45933 and 37587 and 40718 | Mean normalised fluorescence ([2]; Log([ASHL]) -7.5): 182276 | Normalised fluorescence ([2]; Log([ASHL]) -7.5): 179523 and 192948 and 174359 | Mean normalised fluorescence ([2]; Log([ASHL]) -7.5, sheet 3e): 170191 | Mean normalised fluorescence ([2]; Log([ASHL]) -7.5, sheet 3d): 181297 | Normalised fluorescence ([2]; Log([ASHL]) -7.5, sheet 3d, Expt1-3): 178915 and 170205 and 194772 | GFP ([2]; Log([ASHL]) -8): 37611 and 40673 | Mean normalised fluorescence ([2]; Log([ASHL]) -8): 167362 | Normalised fluorescence ([2]; Log([ASHL]) -8): 183805 and 164832 and 153451 | Mean normalised fluorescence ([2]; Log([ASHL]) -8, sheet 3e): 154256 | Mean normalised fluorescence ([2]; Log([ASHL]) -8, sheet 3d): 166513 | Normalised fluorescence ([2]; Log([ASHL]) -8, sheet 3d, Expt1-3): 161111 and 185459 | GFP ([2]; Log([ASHL]) -8.5): 37118 and 36825 | Mean normalised fluorescence ([2]; Log([ASHL]) -8.5): 127411 | Normalised fluorescence ([2]; Log([ASHL]) -8.5): 156949 and 139152 and 86132.6 | Mean normalised fluorescence ([2]; Log([ASHL]) -8.5, sheet 3e): 106537 | Mean normalised fluorescence ([2]; Log([ASHL]) -8.5, sheet 3d): 126734 | Normalised fluorescence ([2]; Log([ASHL]) -8.5, sheet 3d, Expt1-3): 136219 and 158173 | Mean normalised fluorescence ([2]; Log([ASHL]) -9): 62693.3 | Mean normalised fluorescence ([2]; Log([ASHL]) -9, sheet 3e): 40066 | Mean normalised fluorescence ([2]; Log([ASHL]) -9, sheet 3d): 62287.6 | Mean normalised fluorescence ([2]; Log([ASHL]) -9.5): 17191.4 | Mean normalised fluorescence ([2]; Log([ASHL]) -9.5, sheet 3e): 9895.56 | Mean normalised fluorescence ([2]; Log([ASHL]) -9.5, sheet 3d): 17095.5 | Mean normalised fluorescence ([2]; Log([ASHL]) -10): 3897.48 | Mean normalised fluorescence ([2]; Log([ASHL]) -10, sheet 3e): 2635.87 | Mean normalised fluorescence ([2]; Log([ASHL]) -10, sheet 3d): 3848.29 | GFP ([2]; Log([ASHL]) -10.5): 559 and 459 | Mean normalised fluorescence ([2]; Log([ASHL]) -10.5): 1658.33 | Normalised fluorescence ([2]; Log([ASHL]) -10.5): 2009.19 and 1558.44 and 1407.36 | Mean normalised fluorescence ([2]; Log([ASHL]) -10.5, sheet 3e): 1317.17 | Mean normalised fluorescence ([2]; Log([ASHL]) -10.5, sheet 3d): 1623.48 | Normalised fluorescence ([2]; Log([ASHL]) -10.5, sheet 3d, Expt1-3): 1531.14 and 2041.25 | GFP ([2]; Log([ASHL]) -11): 433 and 333 and 432 | Mean normalised fluorescence ([2]; Log([ASHL]) -11): 1322.92 | Normalised fluorescence ([2]; Log([ASHL]) -11): 1515.8 and 1009.39 and 1443.57 | Mean normalised fluorescence ([2]; Log([ASHL]) -11, sheet 3e): 1095.36 | Mean normalised fluorescence ([2]; Log([ASHL]) -11, sheet 3d): 1289.12 | Normalised fluorescence ([2]; Log([ASHL]) -11, sheet 3d, Expt1-3): 995.025 and 1544.75 and 1327.6 | GFP ([2]; Log([ASHL]) -11.5): 418 and 424 and 326 | Mean normalised fluorescence ([2]; Log([ASHL]) -11.5): 1299.42 | Normalised fluorescence ([2]; Log([ASHL]) -11.5): 1462.99 and 1426.41 and 1008.84 | Mean normalised fluorescence ([2]; Log([ASHL]) -11.5, sheet 3e): 1097.76 | Mean normalised fluorescence ([2]; Log([ASHL]) -11.5, sheet 3d): 1265.1 | Normalised fluorescence ([2]; Log([ASHL]) -11.5, sheet 3d, Expt1-3): 994.106 and 1309.43 and 1491.76
